According to ChEMBL document CHEMBL1153839, “Pulmonary versus systemic delivery of antibiotics: comparison of vancomycin dispositions in the isolated rat lung” (Antimicrob Agents Chemother, 2007):

What was measured:
[1] = AUC (0 to infinity) in Wistar rat lung at 500 ug, administered through systemic route under respiratory mode of 60 respirations per minute, 2 ml/kg tidal volume; assay type: ADME; design: dose 500 ug, time infinity
Lung [2] = assay: Mean transit time in Wistar rat lung at 500 ug, administered through systemic route under respiratory mode of 60 respirations per minute, 2 ml/kg tidal volume; assay type: ADME, tissue-based; settings: in vivo, other
[3] = AUC (0 to infinity) in Wistar rat lung at 500 ug, administered through systemic route under respiratory mode of 30 respirations per minute, 4 ml/kg tidal volume; assay type: ADME; design: dose 500 ug, time infinity
Lung [4] = assay: Mean transit time in Wistar rat lung at 500 ug, administered through systemic route under respiratory mode of 30 respirations per minute, 4 ml/kg tidal volume; assay type: ADME, tissue-based; settings: in vivo, other
[5] = Drug level in Wistar rat bronchoalveolar fluid at 500 ug, administered through systemic route; assay type: ADME, tissue-based, Lung; settings: in vivo
Lung [6] = assay: Drug level in Wistar rat lung at 500 ug, administered through systemic route; assay type: ADME, tissue-based; settings: in vivo
[7] = Ratio of drug level in lung to efferent fluid in Wistar rat at 500 ug, administered through systemic route under respiratory mode of 60 respirations per minute, 2 ml/kg tidal volume; assay type: ADME; settings: in vivo, other
[8] = Ratio of drug level in lung to efferent fluid in Wistar rat at 500 ug, administered through systemic route under respiratory mode of 30 respirations per minute, 4 ml/kg tidal volume; assay type: ADME; settings: in vivo, other
[9] = Ratio of drug level in bronchoalveolar fluid to efferent fluid in Wistar rat at 500 ug, administered through pulmonary route under respiratory mode of 60 respirations per minute, 2 ml/kg tidal volume; assay type: ADME; settings: in vivo, inhaled_or_intranasal
[10] = Ratio of drug level in lung to efferent fluid in Wistar rat at 500 ug, administered through pulmonary route under respiratory mode of 60 respirations per minute, 2 ml/kg tidal volume; assay type: ADME; settings: in vivo, inhaled_or_intranasal
[11] = Ratio of drug level in bronchoalveolar fluid to lung in Wistar rat at 500 ug, administered through pulmonary route under respiratory mode of 60 respirations per minute, 2 ml/kg tidal volume; assay type: ADME; settings: in vivo, other
[12] = Ratio of drug level in bronchoalveolar fluid to efferent fluid in Wistar rat at 500 ug, administered through pulmonary route under respiratory mode of 30 respirations per minute, 4 ml/kg tidal volume; assay type: ADME; settings: in vivo, inhaled_or_intranasal
[13] = Ratio of drug level in lung to efferent fluid in Wistar rat at 500 ug, administered through pulmonary route under respiratory mode of 30 respirations per minute, 4 ml/kg tidal volume; assay type: ADME; settings: in vivo, inhaled_or_intranasal
[14] = Ratio of drug level in bronchoalveolar fluid to lung in Wistar rat at 500 ug, administered through pulmonary route under respiratory mode of 30 respirations per minute, 4 ml/kg tidal volume; assay type: ADME; settings: in vivo, inhaled_or_intranasal

CN[C@H](CC(C)C)C(=O)N[C@H]1C(=O)N[C@@H](CC(N)=O)C(=O)N[C@H]2C(=O)N[C@H]3C(=O)N[C@H](C(=O)N[C@H](C(=O)O)c4cc(O)cc(O)c4-c4cc3ccc4O)[C@H](O)c3ccc(c(Cl)c3)Oc3cc2cc(c3O[C@@H]2O[C@H](CO)[C@@H](O)[C@H](O)[C@H]2O[C@H]2C[C@](C)(N)[C@H](O)[C@H](C)O2)Oc2ccc(cc2Cl)[C@H]1O [VANCOMYCIN]
AUC(0-inf) [1]: 1.83 µg·h/mL
MTT (Lung [2]): 0.47 min
AUC(0-inf) [3]: 2.14 µg·h/mL
MTT (Lung [4]): 0.78 min
Drug uptake [5]: 0.1 µg/g
Drug uptake (Lung [6]): 0.11 µg/g
Ratio [7]: 0.49
Ratio [8]: 0.5
Ratio [9]: > 17.89
Ratio [10]: > 9.44
Ratio [11]: 4.69
Ratio [12]: 17.89
Ratio [13]: 9.44
Ratio [14]: 7.1
